{"source": "patent US8609147B2", "about": "“Use of deuterium oxide for treatment of herpes virus-based diseases of the skin” (D2 Bioscience Group Ltd., priority 2007, dated 2013)", "tested_on": "HSV-1", "assay": "Efficacy in a cell culture test: HSV-1 infected human keratinocyte primary cultures, virus count by transmission electron microscopy", "type": "cell-based", "conditions": "cell culture medium containing 35 wt % D2O; 3 days after infection with HSV-1; 20 keratinocyte cells evaluated", "description": "After a closed monolayer had formed in the cell culture dish and after desmosomes had developed, human keratinocyte primary cultures produced according to H. M. Reinl et al. (J. Invest. Dermatol. 1995; 105(2):291-5) were incubated with cell culture medium additionally containing 35 wt % D2O (sample) and/or H2O (controls). On the day of incubation, the sample and controls were infected with HSV-1. The infection was accomplished by adding the virus to the cell culture medium (10^7 viruses per cell culture dish in 1 mL cell culture medium). After 3 days (after infection), the sample and control groups were tested for the average number of viral particles per cell. The virus count was performed using a transmission electron microscope according to standard fixation and staining methods (glutaraldehyde and osmium tetroxide). In each case, 20 randomly selected keratinocyte cells from the sample group and the control group were evaluated with regard to the viral particles contained in them."}
{"smiles": "[2H]O[2H]", "note": "[D2O, deuterium oxide]", "values": [{"measurement": "average virus count (viral particles per cell)", "result": "10±4"}]}
